Holding throughout (type): cell-based
For one test, the target named is T1, adenosine A2 receptors (Rattus norvegicus, UniProt P30543).
T1 construct: stimulate cAMP production in PC12 cells, a function of agonist stimulation of adenosine A2 receptors; endogenous in cells; host or cells: PC12 cells
Put plainly: stimulation of cAMP production in PC12 cells (adenosine A2 receptor agonist function). To be noted: stimulation of cAMP production (A2 agonism). As for the experimental part:
Compounds of this invention prepared according to the method of Example 1 were tested in two functional models specific for adenosine A1 receptor agonist function. The first was the A1 receptor mediated inhibition of isoproterenol stimulated cAMP accumulation in DDT cells. The EC50 of each derivative is shown in Table I. Also shown in Table I is the ability of each derivative to stimulate cAMP production in PC12 cells, a function of agonist stimulation of adenosine A2 receptors. The ratio of the relative potency of each compound in stimulating either an A1 receptor or an A2 receptor effect is termed the selectivity of each compound for the A1 receptor. […] The use of measuring cAMP metabolism as an assay for adenosine A1 receptor function has been previously described (Scammells, P., Baker, S., Belardinelli, L., and Olsson, R., 1994, Substituted 1,3-dipropylxanthines as irreversible antagonists of A1 adenosine receptors. J. Med. Chem 37: […], 1994).
On the technique in general: Cyclic AMP is a second messenger, typically raised through Gs and lowered through Gi signalling.

In test [1] the test system is adenosine A1 receptor. In words: A1 receptor mediated inhibition of isoproterenol stimulated cAMP accumulation in DDT cells. Conditions: for A1 /A2: ratio of EC50 in DDT cells (A1) to EC50 in PC12 cells (A2). An excerpt: (§1) The first was the A1 receptor mediated inhibition of isoproterenol stimulated cAMP accumulation in DDT cells. The EC50 of each derivative is shown in Table I. Also shown in Table I is the ability of each derivative to stimulate cAMP production in PC12 cells, a function of agonist stimulation of adenosine A2 receptors. The ratio of the relative potency of each compound in stimulating either an A1 receptor or an A2 receptor effect is termed the selectivity of each compound for the A1 receptor.

The target of test [2] is T2, adenosine A1 receptor (Mesocricetus auratus, UniProt A0A1U8BVR4).
T2 construct: endogenous in cells
T2 sequence (A0A1U8BVR4 1-326): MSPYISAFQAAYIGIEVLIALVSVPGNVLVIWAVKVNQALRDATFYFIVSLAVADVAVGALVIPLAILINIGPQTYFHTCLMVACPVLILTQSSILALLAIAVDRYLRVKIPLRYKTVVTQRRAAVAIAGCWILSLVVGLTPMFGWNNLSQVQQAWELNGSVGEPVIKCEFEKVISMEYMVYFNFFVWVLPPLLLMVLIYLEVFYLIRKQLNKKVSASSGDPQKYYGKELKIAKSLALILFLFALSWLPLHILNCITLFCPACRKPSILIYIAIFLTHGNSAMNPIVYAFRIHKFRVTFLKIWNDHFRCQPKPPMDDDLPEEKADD
The description is as above. To be noted: DDT cells; inhibition of isoproterenol stimulated cAMP accumulation (A1 agonism).
Text: as §1

Setting [3] is: ratio of EC50 in PC12 cells (A2) to EC50 in DDT cells (A1), A1 selectivity.

Read-outs that look alike come from different tables or passages of the source.

T1 sequence (P30543 whole entry): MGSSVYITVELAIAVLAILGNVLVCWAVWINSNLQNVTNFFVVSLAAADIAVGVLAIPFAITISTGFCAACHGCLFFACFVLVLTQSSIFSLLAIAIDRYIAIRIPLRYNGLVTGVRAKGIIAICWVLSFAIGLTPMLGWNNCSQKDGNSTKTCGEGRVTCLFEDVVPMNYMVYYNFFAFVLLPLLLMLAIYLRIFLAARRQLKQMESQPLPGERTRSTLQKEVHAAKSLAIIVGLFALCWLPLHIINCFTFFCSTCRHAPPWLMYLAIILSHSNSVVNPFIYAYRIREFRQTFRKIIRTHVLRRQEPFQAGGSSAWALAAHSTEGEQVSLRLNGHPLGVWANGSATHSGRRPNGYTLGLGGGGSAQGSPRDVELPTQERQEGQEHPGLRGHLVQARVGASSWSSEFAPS

On to `OC[C@H]1O[C@@H](n2cnc3c(NC4CCOCC4)ncnc32)[C@H](O)[C@@H]1O` [I, 6-(4-aminopyran)-purine Riboside], for which the EC50 – broadly, the concentration at which the effect is half-maximal – on adenosine A2 receptors amounted to 970 nM. In addition, in the test with adenosine A1 receptor [1], the “A2 /A1” value was 80.0 and the “A1 /A2” value stood at 0.012. A half-maximal effect on adenosine A1 receptor [2] (EC50) was put at 12 nM.

As to `OC[C@H]1O[C@@H](n2cnc3c(NC4CCOC4)ncnc32)[C@H](O)[C@@H]1O` (some centres unmarked) [II, 6-(3-aminotetrahydrofuranyl)purine Riboside], the EC50 worked out at 1400 nM at adenosine A2 receptors and 13 nM at adenosine A1 receptor [2]. Besides, the “A1 /A2” value with adenosine A1 receptor [1] turned out to be 0.0093. Also, the “A2 /A1” value in the test with adenosine A1 receptor [1] (setting [3]) is listed as 107.6.

For the molecule `OC[C@H]1O[C@@H](n2cnc3c(N[C@@H]4CCOC4)ncnc32)[C@H](O)[C@@H]1O` [III], the values for the EC50 at adenosine A2 receptors and at adenosine A1 receptor [2] were 448 nM and 1.08 nM, respectively. Besides, the “A1 /A2” value in the test with adenosine A1 receptor [1] turned out to be 0.0024. The “A2 /A1” value in the test on adenosine A1 receptor [1] (setting [3]) is on record as 414.

In the case of `O=C1NCCCC[C@@H]1Nc1ncnc2c1ncn2[C@@H]1O[C@H](CO)[C@@H](O)[C@H]1O` [IV], the concentration for a half-maximal effect (EC50) on adenosine A2 receptors came out at 181 nM; at adenosine A1 receptor [2], 161 nM. Moreover, the “A1 /A2” value in the test with adenosine A1 receptor [1] is 0.889. The “A2 /A1” value in the test on adenosine A1 receptor [1] (setting [3]) stood at 1.12.

On to `OC[C@H]1O[C@@H](n2cnc3c(N[C@H]4CCOC4)ncnc32)[C@H](O)[C@@H]1O` [V, 6-(3-(S)-aminotetrahydrofuranyl)purine Riboside], for which the EC50 at adenosine A2 receptors worked out at 7680 nM; at adenosine A1 receptor [2] it was 3.4 nM. Also, in the test on adenosine A1 receptor [1], the “A1 /A2” value turned out to be 0.00044. Also, the “A2 /A1” value with adenosine A1 receptor [1] (setting [3]) stood at 2258.

The record behind these values is patent US5789416A, “N^6 mono heterocyclic substituted adenosine derivatives” (CV Therapeutics, priority 1996, dated 1998).
